Results reported in patent EP0007880B1, “Medicines containing as active ingredients compounds of the benzene-sulfone type; compounds of this type and process for their preparation” (CHOAY S.A., priority 1978, dated 1980).

What was measured:
[1] = system: rats Wistar mâles; experiment: Normolipemic and/or hypoglycemic activity in Triton W.R.-induced hyperlipidemia in fasted rats; format: in vivo; parameters: Cholestérol Total / Cholestérol Estérifié / Trigly-cérides: unit not given here; details: fasted rats given Triton W.R. 200mg/kg i.v.; for Cholestérol Estérifié / Cholestérol Total / Glucose / Lipides totaux / Trigly-cérides: product given simultaneously, i.p. 100 mg/kg or oral 500 mg/kg (route not stated per product), blood sampled six hours later; for Cholestérol Rapport E/T: ratio esterified/total cholesterol, product i.p. 100 mg/kg or oral 500 mg/kg, six hours later
Protocol: Les essais sont réalisés sur des groupes de 5 rats Wistar mâles (150 à 175g). Les produits testés sont administrés soit par voie intrapéritonéale, à raison de 100 mg/kg dans du soluté isotonique, soit par voie orale, en solution aqueuse à 3% de gomme adragante (1 ml/100g de poids corporel) en quantité correspondant à 500 mg/kg.
Pour ces essais, on provoque une hyperlipidémie chez les animaux au moyen du produit commercialisé par la Société ROHM et HAAS sous le nom de Triton W.R. Chez le rat à jeun, l'injection intraveineuse de Triton entraine une hyperlipidémie particulièrement nette pour les triglycérides .et de façon moindre pour les lipides totaux.
Cette hyperlipidémie est combattue par l'action des substances actives selon l'invention.
Le protocole de l'essai est le suivant. Les rats sont mis à jeûner pendant 18 heures. Le Triton W.R. est administré par voie intraveineuse en solution aqueuse à 10% à raison de 200mg/kg.
Simultanément, les rats reçoivent les produits à tester. Six heures plus tard, on effectue les dosages de façon traditionnelle sur des échantillons sanguins.

[2] = system: souris Swiss; experiment: Acute toxicity in mice (lethal dose 50, Behrens and Karber); format: in vivo; details: dose 1,5g/kg, voie intrapéritonéale; mice observed 8 days

| SMILES | Cholestérol Estérifié [1] | Cholestérol Total [1] | Glucose [1] | Lipides totaux [1] | Trigly-cérides [1] | Cholestérol Rapport E/T [1] | animaux encore en vie [2] |
| --- | --- | --- | --- | --- | --- | --- | --- |
| CC(C)(O)CS(=O)(=O)c1ccccc1 [Exemple 19] | 1,09 | 2,04 | 0,78 g/l | 7,62 g/l | 2,84 | 55,6 | – |
| CCC(C)(O)CS(=O)(=O)c1ccccc1 (stereo not shown) [Exemple 20] | 1,64 | 2,20 | 0,84 g/l | 7,36 g/l | 2,07 | 76,8 | – |
| O=S(=O)(CC1(O)CCCCC1)c1ccccc1 [Exemple 21] | 2,06 | 3,09 | 0,89 g/l | 9,56 g/l | 2,23 | 66,0 | – |
| O=S(=O)(CC(O)c1ccccc1)c1ccccc1 (stereo not shown) [Exemple 22] | 1,89 | 2,28 | 1,18 g/l | 8,50 g/l | 3,95 | 82,4 | – |
| O=S(=O)(CC(O)c1ccc(Cl)cc1)c1ccccc1 (stereo not shown) [Exemple 23] | – | – | – | – | – | – | 5 animaux sur 5 sont encore en vie |
| O=S(=O)(CC(O)c1ccc(F)cc1)c1ccccc1 (stereo not shown) [Exemple 24] | 0,98 | 1,48 | 1,12 g/l | 15,30 g/l | 1,80 | 69,40 | – |
| CC(C(O)(c1ccccc1)c1ccccc1)S(=O)(=O)c1ccccc1 (stereo not shown) [Exemple 27] | – | – | – | – | – | – | 5 animaux sur 5 sont encore en vie |
| O=S(=O)(CC(O)c1ccccc1)c1ccc(F)cc1 (stereo not shown) [Exemple 28] | 0,66 | 1,24 | 1,22 g/l | 6,0 g/l | 4,31 | 54,4 | – |
| O=S(=O)(CC1(O)CCCCC1)c1ccc(F)cc1 [Exemple 32] | 0,73 | 1,14 | 0,92 g/l | 10,99 g/l | 4,00 | 65,17 | – |
| O=S(=O)(CCCO)c1ccccc1 [Exemple 40] | 0,99 | 1,56 | 0,93 g/l | 3,76 g/l | – | 61,2 | – |
| CC(C)(Oc1ccc(Cl)cc1)C(=O)OCCCS(=O)(=O)c1ccccc1 [Exemple 47] | 0,90 | 1,52 | 0,97 g/l | 10,28 g/l | 4,56 | 59,99 | – |
